Experimental data: ChEMBL document CHEMBL1772945, “Bioactive compounds from the scale insect pathogenic fungus Conoideocrella tenuis BCC 18627” (J Nat Prod, 2011)
Converted amounts (≈) assume the structure as drawn. Where a name gives a salt, the structure may show the parent alone.

The compounds below were run on MCF7 (assay: Cytotoxicity against human MCF7 cells after 45 hrs by resazurin microplate assay). Details: MCF7, 45 h.
Type: functional, cell-based
For `CC(C)(O)[C@H]1CC[C@]2(C)[C@H]3C[C@@H](O)[C@@H]4[C@@]5(C)CCCC(C)(C)[C@@H]5[C@H](O)C[C@@]4(C)[C@]3(C=O)CC[C@@H]12`, the IC50 was 28 µM. `CC(C)(O)[C@H]1CC[C@]2(C)[C@H]3C[C@@H](O)[C@@H]4[C@@]5(C)CCCC(C)(C)[C@@H]5[C@H](O)C[C@@]4(C)[C@]3(CO)CC[C@@H]12` was tested, and the IC50 was 15 µM. `CC(C)(O)[C@H]1CC[C@]2(C)[C@H]3CC[C@@H]4[C@@]5(C)CCCC(C)(C)[C@@H]5[C@H](O)[C@H](O)[C@@]4(C)[C@]3(C)CC[C@@H]12` gave an IC50 greater than 109 µM. In the case of `COc1cc(OC)c2c(O)c3c(c(-c4c(OC)cc(OC)c5c(O)c6c(cc45)[C@H](OC(C)=O)[C@H](C)OC6)c2c1)[C@H](OC(C)=O)[C@H](C)OC3`, the IC50 is reported as 37 µM. Compound `COc1cc(OC)c2c(O)c3c(c(-c4c5c(c(O)c6c(OC)cc(OC)cc46)CO[C@@H](C)[C@H]5OC(C)=O)c2c1)[C@H](OC(C)=O)[C@H](C)OC3` has an IC50 of 22 µM. Compound `COc1cccc2c1C(=O)c1c(O)c3c(c(O)c1C2=O)C[C@@](O)(C(=O)CO)C[C@@H]3O[C@H]1C[C@H](N)[C@H](O)[C@H](C)O1` [DOXORUBICIN HYDROCHLORIDE] has an IC50 of 4.9 µM.

What follows are compounds tested on Plasmodium falciparum (assay: Antimalarial activity against multi-drug-resistant Plasmodium falciparum K1 by microculture radioisotope technique). Details: not given.
Type: functional, organism-based
`CC(C)(O)[C@H]1CC[C@]2(C)[C@H]3C[C@@H](O)[C@@H]4[C@@]5(C)CCCC(C)(C)[C@@H]5[C@H](O)C[C@@]4(C)[C@]3(C=O)CC[C@@H]12` showed an IC50 greater than 21 µM. `CC(C)(O)[C@H]1CC[C@]2(C)[C@H]3C[C@@H](O)[C@@H]4[C@@]5(C)CCCC(C)(C)[C@@H]5[C@H](O)C[C@@]4(C)[C@]3(CO)CC[C@@H]12` gave an IC50 of 9.8 µM. `CC(C)(O)[C@H]1CC[C@]2(C)[C@H]3CC[C@@H]4[C@@]5(C)CCCC(C)(C)[C@@H]5[C@H](O)[C@H](O)[C@@]4(C)[C@]3(C)CC[C@@H]12` was tested, and the IC50 was greater than 22 µM. In the case of `COc1cc(OC)c2c(O)c3c(c(-c4c(OC)cc(OC)c5c(O)c6c(cc45)[C@H](OC(C)=O)[C@H](C)OC6)c2c1)[C@H](OC(C)=O)[C@H](C)OC3`, the IC50 is reported as 15 µM. For `COc1cc(OC)c2c(O)c3c(c(-c4c5c(c(O)c6c(OC)cc(OC)cc46)CO[C@@H](C)[C@H]5OC(C)=O)c2c1)[C@H](OC(C)=O)[C@H](C)OC3`, the IC50 was 10 µM.

What follows are compounds tested on Human alphaherpesvirus 1 (assay: Antiviral activity against HSV-1 by green fluorescent protein microplate assay). Details: not given.
Type: functional, organism-based
With `CC(C)(O)[C@H]1CC[C@]2(C)[C@H]3C[C@@H](O)[C@@H]4[C@@]5(C)CCCC(C)(C)[C@@H]5[C@H](O)C[C@@]4(C)[C@]3(C=O)CC[C@@H]12` the IC50 was 21 µM. `CC(C)(O)[C@H]1CC[C@]2(C)[C@H]3C[C@@H](O)[C@@H]4[C@@]5(C)CCCC(C)(C)[C@@H]5[C@H](O)C[C@@]4(C)[C@]3(CO)CC[C@@H]12` was tested, and the IC50 was 14 µM. In the case of `CC(C)(O)[C@H]1CC[C@]2(C)[C@H]3CC[C@@H]4[C@@]5(C)CCCC(C)(C)[C@@H]5[C@H](O)[C@H](O)[C@@]4(C)[C@]3(C)CC[C@@H]12`, the IC50 is reported as greater than 109 µM. For `COc1cc(OC)c2c(O)c3c(c(-c4c(OC)cc(OC)c5c(O)c6c(cc45)[C@H](OC(C)=O)[C@H](C)OC6)c2c1)[C@H](OC(C)=O)[C@H](C)OC3`, the IC50 was greater than 75 µM. Work on `COc1cc(OC)c2c(O)c3c(c(-c4c5c(c(O)c6c(OC)cc(OC)cc46)CO[C@@H](C)[C@H]5OC(C)=O)c2c1)[C@H](OC(C)=O)[C@H](C)OC3` yielded an IC50 greater than 75 µM. `Nc1nc2c(ncn2COCCO)c(=O)[nH]1` [ACYCLOVIR] showed an IC50 of 17 µM.

What follows are compounds tested on KB (assay: Cytotoxicity against human KB cells after 45 hrs by resazurin microplate assay). Details: not given.
Type: functional, cell-based
`CC(C)(O)[C@H]1CC[C@]2(C)[C@H]3C[C@@H](O)[C@@H]4[C@@]5(C)CCCC(C)(C)[C@@H]5[C@H](O)C[C@@]4(C)[C@]3(C=O)CC[C@@H]12` was tested, and the IC50 was 10 µM. Work on `CC(C)(O)[C@H]1CC[C@]2(C)[C@H]3C[C@@H](O)[C@@H]4[C@@]5(C)CCCC(C)(C)[C@@H]5[C@H](O)C[C@@]4(C)[C@]3(CO)CC[C@@H]12` yielded an IC50 of 5.6 µM. Compound `CC(C)(O)[C@H]1CC[C@]2(C)[C@H]3CC[C@@H]4[C@@]5(C)CCCC(C)(C)[C@@H]5[C@H](O)[C@H](O)[C@@]4(C)[C@]3(C)CC[C@@H]12` has an IC50 greater than 109 µM. With `COc1cc(OC)c2c(O)c3c(c(-c4c(OC)cc(OC)c5c(O)c6c(cc45)[C@H](OC(C)=O)[C@H](C)OC6)c2c1)[C@H](OC(C)=O)[C@H](C)OC3` the IC50 was 15 µM. Compound `COc1cc(OC)c2c(O)c3c(c(-c4c5c(c(O)c6c(OC)cc(OC)cc46)CO[C@@H](C)[C@H]5OC(C)=O)c2c1)[C@H](OC(C)=O)[C@H](C)OC3` has an IC50 of 4.4 µM. `COc1cccc2c1C(=O)c1c(O)c3c(c(O)c1C2=O)C[C@@](O)(C(=O)CO)C[C@@H]3O[C@H]1C[C@H](N)[C@H](O)[C@H](C)O1` [DOXORUBICIN HYDROCHLORIDE] showed an IC50 of 0.27 µM.

The compounds below were run on NCI-H187 (assay: Cytotoxicity against human NCI-H187 cells after 45 hrs by resazurin microplate assay). Details: NCI-H187, 45 h.
Type: functional, cell-based
Compound `CC(C)(O)[C@H]1CC[C@]2(C)[C@H]3C[C@@H](O)[C@@H]4[C@@]5(C)CCCC(C)(C)[C@@H]5[C@H](O)C[C@@]4(C)[C@]3(C=O)CC[C@@H]12` has an IC50 of 68 µM. Work on `CC(C)(O)[C@H]1CC[C@]2(C)[C@H]3C[C@@H](O)[C@@H]4[C@@]5(C)CCCC(C)(C)[C@@H]5[C@H](O)C[C@@]4(C)[C@]3(CO)CC[C@@H]12` yielded an IC50 of 47 µM. `CC(C)(O)[C@H]1CC[C@]2(C)[C@H]3CC[C@@H]4[C@@]5(C)CCCC(C)(C)[C@@H]5[C@H](O)[C@H](O)[C@@]4(C)[C@]3(C)CC[C@@H]12` showed an IC50 greater than 109 µM. Compound `COc1cc(OC)c2c(O)c3c(c(-c4c(OC)cc(OC)c5c(O)c6c(cc45)[C@H](OC(C)=O)[C@H](C)OC6)c2c1)[C@H](OC(C)=O)[C@H](C)OC3` has an IC50 of 12 µM. `COc1cc(OC)c2c(O)c3c(c(-c4c5c(c(O)c6c(OC)cc(OC)cc46)CO[C@@H](C)[C@H]5OC(C)=O)c2c1)[C@H](OC(C)=O)[C@H](C)OC3` was tested, and the IC50 was 71 µM. `COc1cccc2c1C(=O)c1c(O)c3c(c(O)c1C2=O)C[C@@](O)(C(=O)CO)C[C@@H]3O[C@H]1C[C@H](N)[C@H](O)[C@H](C)O1` [DOXORUBICIN HYDROCHLORIDE] gave an IC50 of 0.23 µM.

What follows are compounds tested on Vero (assay: Cytotoxicity against african green monkey Vero cells by green fluorescent protein microplate assay). Details: Chlorocebus sabaeus.
Type: cell-based
`CC(C)(O)[C@H]1CC[C@]2(C)[C@H]3C[C@@H](O)[C@@H]4[C@@]5(C)CCCC(C)(C)[C@@H]5[C@H](O)C[C@@]4(C)[C@]3(C=O)CC[C@@H]12` showed an IC50 of 69 µM. `CC(C)(O)[C@H]1CC[C@]2(C)[C@H]3C[C@@H](O)[C@@H]4[C@@]5(C)CCCC(C)(C)[C@@H]5[C@H](O)C[C@@]4(C)[C@]3(CO)CC[C@@H]12` gave an IC50 of 47 µM. Work on `CC(C)(O)[C@H]1CC[C@]2(C)[C@H]3CC[C@@H]4[C@@]5(C)CCCC(C)(C)[C@@H]5[C@H](O)[C@H](O)[C@@]4(C)[C@]3(C)CC[C@@H]12` yielded an IC50 greater than 109 µM. For `COc1cc(OC)c2c(O)c3c(c(-c4c(OC)cc(OC)c5c(O)c6c(cc45)[C@H](OC(C)=O)[C@H](C)OC6)c2c1)[C@H](OC(C)=O)[C@H](C)OC3`, the IC50 was greater than 75 µM. Work on `COc1cc(OC)c2c(O)c3c(c(-c4c5c(c(O)c6c(OC)cc(OC)cc46)CO[C@@H](C)[C@H]5OC(C)=O)c2c1)[C@H](OC(C)=O)[C@H](C)OC3` yielded an IC50 greater than 75 µM. `Cc1c2ccncc2c(C)c2c1[nH]c1ccccc12` [ELLIPTECINE] was tested, and the IC50 was 12 µM.

What follows are compounds tested on Mycobacterium tuberculosis (assay: Antitubercular activity against Mycobacterium tuberculosis H37Ra by green fluorescent protein microplate assay). Details: not given.
Type: functional
Compound `CC(C)(O)[C@H]1CC[C@]2(C)[C@H]3C[C@@H](O)[C@@H]4[C@@]5(C)CCCC(C)(C)[C@@H]5[C@H](O)C[C@@]4(C)[C@]3(C=O)CC[C@@H]12` has an MIC greater than 105 µM. With `CC(C)(O)[C@H]1CC[C@]2(C)[C@H]3C[C@@H](O)[C@@H]4[C@@]5(C)CCCC(C)(C)[C@@H]5[C@H](O)C[C@@]4(C)[C@]3(CO)CC[C@@H]12` the MIC was 52 µM (≈ 24.8 µg/mL). `CC(C)(O)[C@H]1CC[C@]2(C)[C@H]3CC[C@@H]4[C@@]5(C)CCCC(C)(C)[C@@H]5[C@H](O)[C@H](O)[C@@]4(C)[C@]3(C)CC[C@@H]12` gave an MIC greater than 109 µM. In the case of `COc1cc(OC)c2c(O)c3c(c(-c4c(OC)cc(OC)c5c(O)c6c(cc45)[C@H](OC(C)=O)[C@H](C)OC6)c2c1)[C@H](OC(C)=O)[C@H](C)OC3`, the MIC is reported as greater than 75 µM. For `COc1cc(OC)c2c(O)c3c(c(-c4c5c(c(O)c6c(OC)cc(OC)cc46)CO[C@@H](C)[C@H]5OC(C)=O)c2c1)[C@H](OC(C)=O)[C@H](C)OC3`, the MIC was greater than 75 µM.
